Laboratory results as given in patent US20120321584A1, “PROCESSES FOR PREPARING AMINE SALTS OF KMUP-3 AND USE THEREOF” (KAOHSIUNG MEDICAL UNIVERSITY, priority 2011, published 2012).

Legend:
eNOS [1] = assay: eNOS expression in aorta and pulmonary artery rings, Western blotting; format: cell-based, rat; settings: aorta and pulmonary artery (PA) ring
Experimental: ROCKII expression and vascular resistance. To determine whether KMUP-3's ROCKII activity increased vascular resistance, aorta and pulmonary artery (PA) ring protein was extracted followed by Western blotting to measure the expression ROCKII and eNOS.
(§1) Protein extraction and Western blotting analysis. Briefly, after incubation with test agents in an organ bath, isolated beating atrium was frozen and pulverized to a fine powder at the temperature of liquid nitrogen. Atrium powders were then homogenized in protein extraction reagent (Pierce Biotechnology, Inc., Rockford, Ill.) by sonication. The samples were sonicated 10 sec three times and centrifuged at 13,000 rpm at 4° C. for 30 min. The protein concentrations of supernatants were determined by using bovine serum albumin as the standard. The cell extracts were then boiled in a ratio of 4:1 with sample buffer (Tris 100 mM, pH 6.8; glycerol 20%, Sodium dodecyl sulfate (SDS) 4% and bromophenol blue 0.2%). Electrophoresis was performed using 10% SDS-PAGE and transferred to nitrocellulose membranes (Millipore Corp., Billerica, Mass.). […] The intensity of the bands was measured by densitometry. eNOS or phosphorylated eNOS were extracted from cell culture of neonatal myocytes, PA ring and aortic ring (2-3 mm) of rats and measured by Western blotting analysis.

eNOS [2] = assay: eNOS expression in neonatal myocytes, Western blotting; format: cell-based, rat; settings: neonatal rat cardiomyocytes
Experimental: eNOS/p-NOS and cAMP/cGMP in neonatal myocytes. To determine the role of the NO/cGMP-pathway in heart, neonatal rat myocyte protein was extracted followed by Western blotting to measure the expression of eNOS, phosphorylated eNOS (p-eNOS), cAMP, and cGMP (FIG. 14 A-14 B and FIG. 15 A-15 B). KMUP-3 increased eNOS and p-eNOS in neonatal rat cardiomyocytes and the effect was reduced by L-NAME (100 μM)-pretreatment (FIG. 14A and FIG. 14B). KMUP-3 increased both cAMP and cGMP.
as §1, with “standard.” for “standard. The cell extracts were then boiled in a ratio of 4:1 with sample buffer (Tris 100 mM, pH 6.8; glycerol 20%, Sodium dodecyl sulfate (SDS) 4% and bromophenol blue 0.2%). Electrophoresis was performed using 10% SDS-PAGE and transferred to nitrocellulose membranes (Millipore Corp., Billerica, Mass.).”

L-type Ca2+ channels = assay: Ca2+ entry currents in H9c2 cells, whole cell patch-clamp; format: cell-based, rat; settings: H9c2 cells, KMUP-3 1-100 μM
Description: To measure the ICa through L-type Ca^2+ channels, whole cell patch-clamp electrophysiology was used in rat heart-derived H9c2 cells as previously described. In brief, H9c2 cells were placed in a recording dish and perfused with a bath solution containing (in mM): 135 tetraethylammonium (TEA)-Cl, 1.8 CaCl2, 2 MgCl2, 10 glucose, and 10 HEPES (pH 7.4, Tris). […] Negative pressure was briefly applied to rupture the membrane and a gigaohm seal was obtained.
H9c2 cells were clamped at −80 mV with step depolarizations (300 ms) from −80 to 0 mV to evoke whole-cell ICa. Voltage clamped cells were equilibrated for 15 min prior to experimentation. Membrane currents were recorded on an Axopatch 700A amplifier (Axon Instruments, Union City, Calif.), filtered at 1 kHz using a low-pass Bessel filter, digitized at 5 kHz and stored on a computer for subsequent analysis with Clampfit 9.0. Following equilibration, ICa was monitored in the presence and absence of KMUP-3 or KMUP-3 amine salt (1, 10, 100 μM). To ascertain whether PKG or ROCK signaling was involved in the KMUP-3-induced decreases in ICa, H9c2 cells were incubated for 15 min with the combination of KMUP-3 or KMUP-3 amine salt (10 μM) and PKG antagonist KT5823 (3 μM) or ROCK inhibitor Y-27632 (50 μM). All electrical recordings were performed at room temperature.

[3] = system: isolated spontaneously beating right atrium; assay: Spontaneously beating right atrium, organ bath; format: cell-based, guinea-pig; settings: 0.1-30 μM
Experimental: Organ bath experiments and tissue procurement. Guinea-pigs were killed by a blow on the head. Their hearts were quickly excised and trimmed of excess tissues. The atrium was carefully removed and placed at room temperature (20˜25° C.) in a Krebs solution of the following composition (mM): NaCl 113, KCl 4.8, CaCl2 2.2, KH2PO4 1.2, MgCl2 1.2, NaHCO3 25, dextrose 11.0; bubbled with a 95% O2+5% CO2 mixture, followed by separation of right and left atrium for subsequent experiments.
Spontaneously beating right atrium was dissected from the heart and mounted in a 10 ml organ bath with one end fixed and the other end connected to a force displacement transducer (Grass, Model FT03). The frequency of contraction was measured on a separate channel by a tachometer (Coulbourn, Model S77-26) connected to a high-speed videograph (Coulbourn, AT L19-69). These experiments were carried out at 32.5° C. in Krebs solution. The atria strip was pre-stretched to a baseline tension of 0.5 g and equilibrated for 90 min in aerated (95% O2+5% CO2) Krebs solution before the experimental protocols were initiated. The atria were then allowed a 30-60 min washout period to re-stabilize. KMUP-3 or KMUP-3 amine salt (0.1, 1.0, 10, 100 μM) were then cumulatively added to the organ bath. […]

CPI-17 = CPI-17 phosphorylation in electrically stimulated beating left atria; format: cell-based, guinea-pig
Experimental: as §1
PK, ROCKII and CIP-17 expression and pretreatment of beating left atrium. To examine whether KMUP-3 or KMUP-3 amine salt affects the protein expression in beating atrium, PKA, ROCKII, PKG and phosphorylated CIP-17 was determined by Western blotting, respectively. […]

[4] = system: electrically-stimulated left atria; assay: Electrically-stimulated beating left atrium, organ bath; format: cell-based, guinea-pig; settings: 0.1~30 μM, electrical stimulation 1 Hz

Cn1c(=O)c2c(ncn2CCN2CCN(c3ccc([N+](=O)[O-])cc3)CC2)n(C)c1=O [KMUP-3, 7-[2-[4-(4-nitrobenzene)piperazinyl]ethyl]-1,3-dimethylxanthine]
Vascular eNOS expression (eNOS [1]): did increase | eNOS expression (eNOS [2]): increased | Inward currents (Ca2+ entry) (L-type Ca2+ channels): concentration-dependently reduced | Chronotropic effect (beating frequency) [3]: decreased | Inotropic effect (contraction force) [3]: concentration-dependently increased | Phosphorylation of CPI-17 (CPI-17): concentration-dependently increased | Left atrium contractility [4]: concentration-dependently increased
